In ChEMBL document CHEMBL3871282, “Neo-tanshinlactone D-ring modified novel analogues induce apoptosis in human breast cancer cell via DNA damage” (Bioorg Med Chem, 2017):
Activity calls are given as the source filed them. The rule behind the calls is not given here.

Assays:
[1] = Cytotoxicity against human HeLa cells assessed as cell growth inhibition after 24 hrs by MTT assay; type: functional, cell-based
[2] = system: MCF7; test: Induction of DNA damage-mediated apoptosis in human MCF7 cells assessed as phosphorylation of p53 at Ser-15 residue after 24 hrs by DAPI staining based immunocytochemistry analysis; type: cell-based
[3] = system: MCF7; test: Induction of apoptosis in human MCF7 cells assessed as early apoptotic cells at 8 nM after 24 hrs by Annexin V-FITC/propidium iodide-dual staining based FACS analysis (reference value: 2.3%); type: functional
[4] = system: MCF7; test: Induction of DNA damage-mediated apoptosis in human MCF7 cells assessed as activation of ERK1/2 at 12 nM up to 6 hrs by immunoblot analysis; type: cell-based
[5] = system: MCF7; test: Induction of DNA damage-mediated apoptosis in human MCF7 cells assessed as decrease in HDAC3 expression in nuclear fraction at 8 to 16 nM after 24 hrs by immunoblot analysis; type: cell-based
[6] = system: MCF7; test: Induction of DNA damage-mediated apoptosis in human MCF7 cells assessed as cleaved PARP after 24 hrs by immunoblot analysis; type: cell-based
[7] = Cell cycle arrest in human MCF7 cells assessed as G0/G1 phase at 8 nM after 24 hrs by propidium iodide staining based FACS analysis (reference value: 43.9%); type: functional
[8] = system: MCF7; test: Induction of DNA damage-mediated apoptosis in human MCF7 cells assessed as increase in Rb-E2F1 interaction at 8 to 16 nM after 24 hrs by co-immunoprecipitation analysis; type: cell-based
[9] = Cell cycle arrest in human MCF7 cells assessed as S phase at 8 nM after 24 hrs by propidium iodide staining based FACS analysis (reference value: 27.5%); type: functional
[10] = Cell cycle arrest in human MCF7 cells assessed as S phase at 12 nM after 24 hrs by propidium iodide staining based FACS analysis (reference value: 27.5%); type: functional
[11] = system: MCF7; test: Induction of DNA damage-mediated apoptosis in human MCF7 cells assessed as decrease in HDAC2 expression in cytoplasmic fraction at 8 to 16 nM after 24 hrs by immunoblot analysis; type: cell-based
[12] = system: MCF7; test: Induction of DNA damage-mediated apoptosis in human MCF7 cells assessed as deactivation of Akt at 12 nM after 2 hrs by immunoblot analysis; type: cell-based
[13] = system: MCF7; test: Induction of DNA double strand breaks in human MCF7 cells assessed as increase in H2AX to gamma-H2AX ratio after 24 hrs by Western blot analysis; type: cell-based
[14] = system: MCF7; test: Induction of DNA damage-mediated apoptosis in human MCF7 cells assessed as downregulation of HDAC2 after 24 hrs by DAPI staining based immunocytochemistry analysis; type: cell-based
[15] = system: MCF7; test: Induction of DNA double strand breaks in human MCF7 cells assessed as gamma-H2AX foci at near IC50 after 24 hrs by DAPI staining based immunofluorescence assay; type: cell-based
[16] = Induction of DNA damage-mediated apoptosis in human MCF7 cells assessed as upregulation of cytochrome c after 24 hrs by immunoblot analysis; type: cell-based
[17] = species: Bos taurus; test: Inhibition of DAPI binding to calf thymus DNA at 10 to 50 uM measured at 460 nm by fluorescence spectroscopic method
[18] = system: MCF7; test: Induction of apoptosis in human MCF7 cells assessed as late apoptotic cells at 16 nM after 24 hrs by Annexin V-FITC/propidium iodide-dual staining based FACS analysis (reference value: 0.1%); type: functional
[19] = system: MCF7; test: Induction of DNA double strand breaks in human MCF7 cells assessed as activation of phosphorylated ATM at ser1981 residue after 24 hrs immunoblot analysis; type: cell-based
[20] = system: MCF7; test: Induction of apoptosis in human MCF7 cells assessed as early apoptotic cells at 12 nM after 24 hrs by Annexin V-FITC/propidium iodide-dual staining based FACS analysis (reference value: 2.3%); type: functional
[21] = system: MCF7; test: Induction of DNA damage-mediated apoptosis in human MCF7 cells assessed as Rb hypo-phosphorylation after 24 hrs by immunoblot analysis; type: cell-based
[22] = species: Bos taurus; test: Binding affinity to calf thymus DNA assessed hyperchromic shift at 260 nm up to 1:1 compound to DNA ratio measured by UV-Vis spectrophotometric analysis
[23] = system: MCF7; test: Induction of DNA damage-mediated apoptosis in human MCF7 cells assessed as decrease in HDAC1 levels in nuclear fraction at 8 to 16 nM after 24 hrs by immunoblot analysis; type: cell-based
[24] = system: MCF7; test: Induction of DNA double strand breaks in human MCF7 cells assessed as activation of phosphorylated Chk2 at Thr68 residue after 24 hrs immunoblot analysis; type: cell-based

**Q.** Which IC50 [1] does the source give for `O=c1cc(OCc2ccccc2)c2ccc3ccccc3c2[nH]1` here?
**A.** 52.1 µM

**Q.** What about the Activity [2] of the same compound?
**A.** Dose-dependent effect

**Q.** And the Activity [3]?
**A.** 10.9%

**Q.** What about the Activity [4] of the same compound?
**A.** Active

**Q.** And the Activity [5]?
**A.** Active

**Q.** What about the Activity [6] of the same compound?
**A.** Dose-dependent effect

**Q.** And the Activity [7]?
**A.** 55.1%

**Q.** What about the Activity [8] of the same compound?
**A.** Active

**Q.** What about the Activity [9] of the same compound?
**A.** 25.8%

**Q.** What about the Activity [10] of the same compound?
**A.** 25.1%

**Q.** What about the Activity [11] of the same compound?
**A.** Active

**Q.** And the Activity [12]?
**A.** Active

**Q.** And the Activity [13]?
**A.** Dose-dependent effect

**Q.** And the Activity [14]?
**A.** Dose-dependent effect

**Q.** And the Activity [15]?
**A.** 29.9%

**Q.** And the Activity [16]?
**A.** Dose-dependent effect

**Q.** And the inhibition [17]?
**A.** Active

**Q.** And the Activity [18]?
**A.** 5.6%

**Q.** And the Activity [19]?
**A.** Dose-dependent effect

**Q.** What about the Activity [20] of the same compound?
**A.** 39%

**Q.** What about the Activity [21] of the same compound?
**A.** Dose-dependent effect

**Q.** And the Activity [22]?
**A.** Active

**Q.** What about the Activity [23] of the same compound?
**A.** Active

**Q.** And the Activity [24]?
**A.** Dose-dependent effect
